Legend:
[1] = test system: Staphylococcus aureus; assay: Antimicrobial activity against Staphylococcus aureus 241 after 18 hrs by twofold agar dilution method; assay type: functional; conditions: Staphylococcus aureus, 241, 18 h; read-out: MIC
[2] = test system: Enterobacter cloacae; assay: Antimicrobial activity against Enterobacter cloacae P99 after 18 hrs by twofold agar dilution method; assay type: functional; conditions: P99, 18 h
[3] = test system: Micrococcus luteus; assay: Antimicrobial activity against Micrococcus luteus ATCC 9341 after 18 hrs by twofold agar dilution method; assay type: functional; conditions: ATCC 9341, 18 h, read-out: MIC
[4] = test system: Pseudomonas aeruginosa; assay: Antimicrobial activity against Pseudomonas aeruginosa 6065Y after 18 hrs by twofold agar dilution method; assay type: functional
[5] = test system: Serratia marcescens; assay: Antimicrobial activity against Serratia marcescens 1826E after 18 hrs by twofold agar dilution method; assay type: functional
[6] = test system: Klebsiella aerogenes; assay: Antimicrobial activity against Klebsiella aerogenes harboring beta-lactamase SHV-1 1976E mutant after 18 hrs by twofold agar dilution method; assay type: functional
[7] = test system: Morganella morganii; assay: Antimicrobial activity against Morganella morganii 1375E after 18 hrs by twofold agar dilution method; assay type: functional
[8] = test system: Escherichia coli; assay: Antimicrobial activity against Escherichia coli 851E after 18 hrs by twofold agar dilution method; assay type: functional
[9] = test system: Moraxella catarrhalis; assay: Antimicrobial activity against Moraxella catarrhalis C2431 after 18 hrs by twofold agar dilution method; assay type: functional; conditions: C2431, 18 h
[10] = test system: Staphylococcus aureus; assay: Antimicrobial activity against Staphylococcus aureus 77 after 18 hrs by twofold agar dilution method; assay type: functional; conditions: Staphylococcus aureus, 77, 18 h; read-out: MIC
[11] = test system: Staphylococcus aureus; assay: Antimicrobial activity against Staphylococcus aureus giorgio after 18 hrs by twofold agar dilution method; assay type: functional
[12] = test system: Staphylococcus epidermidis; assay: Antimicrobial activity against Staphylococcus epidermidis 887E after 18 hrs by twofold agar dilution method; assay type: functional; conditions: read-out: MIC
[13] = test system: Enterobacter cloacae; assay: Antimicrobial activity against Enterobacter cloacae ATCC 27508 after 18 hrs by twofold agar dilution method; assay type: functional; conditions: ATCC 27508, 18 h
[14] = test system: Bacillus licheniformis; assay: Antimicrobial activity against Bacillus licheniformis EMR after 18 hrs by twofold agar dilution method; assay type: functional; conditions: read-out: MIC
[15] = test system: Staphylococcus aureus; assay: Antimicrobial activity against Staphylococcus aureus ATCC 25923 after 18 hrs by twofold agar dilution method; assay type: functional; conditions: ATCC 25923, 18 h
[16] = test system: Salmonella typhimurium; assay: Antimicrobial activity against Salmonella typhimurium ATCC 13311 after 18 hrs by twofold agar dilution method; assay type: functional, Salmonella enterica subsp. enterica serovar Typhimurium; conditions: Salmonella enterica, ATCC 13311, 18 h
[17] = test system: Acinetobacter calcoaceticus; assay: Antimicrobial activity against Acinetobacter calcoaceticus ATCC 15473 after 18 hrs by twofold agar dilution method; assay type: functional; conditions: ATCC 15473, 18 h
[18] = test system: Enterococcus faecalis; assay: Antimicrobial activity against Enterococcus faecalis ATCC 29212 after 18 hrs by twofold agar dilution method; assay type: functional; conditions: ATCC 29212, 18 h
[19] = test system: Citrobacter koseri; assay: Antimicrobial activity against Citrobacter diversus 2046 after 18 hrs by twofold agar dilution method; assay type: functional; conditions: Citrobacter koseri, 2046, 18 h
[20] = test system: Salmonella typhimurium; assay: Antimicrobial activity against Salmonella Typhimurium ATCC 14028 after 18 hrs by two-fold agar dilution method; assay type: functional, Salmonella enterica subsp. enterica serovar Typhimurium; conditions: Salmonella enterica, ATCC 14028, 18 h
[21] = test system: Citrobacter freundii; assay: Antimicrobial activity against Citrobacter freundii 8090 after 18 hrs by twofold agar dilution method; assay type: functional; conditions: Citrobacter freundii, 8090, 18 h
[22] = test system: Moraxella catarrhalis; assay: Antimicrobial activity against Moraxella catarrhalis 25240 after 18 hrs by twofold agar dilution method; assay type: functional; conditions: Moraxella catarrhalis, 25240, 18 h
[23] = test system: Proteus vulgaris; assay: Antimicrobial activity against Proteus vulgaris 6059 after 18 hrs by twofold agar dilution method; assay type: functional; conditions: Proteus vulgaris, 6059, 18 h
[24] = test system: Staphylococcus aureus; assay: Antimicrobial activity against Staphylococcus aureus ATCC 6538P after 18 hrs by twofold agar dilution method; assay type: functional
[25] = test system: Bacillus subtilis; assay: Antimicrobial activity against Bacillus subtilis ATCC 6633 after 18 hrs by twofold agar dilution method; assay type: functional; conditions: ATCC 6633, 18 h
[26] = test system: Escherichia coli; assay: Antimicrobial activity against Escherichia coli 3190Y after 18 hrs by twofold agar dilution method; assay type: functional
[27] = test system: Klebsiella pneumoniae; assay: Antimicrobial activity against Klebsiella pneumoniae 2011E after 18 hrs by twofold agar dilution method; assay type: functional
[28] = test system: Escherichia coli; assay: Antimicrobial activity against Escherichia coli ATCC 10536 after 18 hrs by twofold agar dilution method; assay type: functional; conditions: ATCC 10536, 18 h
[29] = test system: Escherichia coli; assay: Antimicrobial activity against Escherichia coli ATCC 25922 after 18 hrs by twofold agar dilution method; assay type: functional; conditions: ATCC 25922, 18 h
[30] = test system: Bacillus cereus; assay: Antimicrobial activity against Bacillus cereus ATCC 27348 after 18 hrs by twofold agar dilution method; assay type: functional; conditions: ATCC 27348, 18 h
[31] = test system: Serratia marcescens; assay: Antimicrobial activity against Serratia marcescens ATCC 27117 after 18 hrs by twofold agar dilution method; assay type: functional; conditions: ATCC 27117, 18 h

| SMILES | MIC [1] [µg/mL] | MIC [2] [µg/mL] | MIC [3] [µg/mL] | MIC [4] [µg/mL] | MIC [5] [µg/mL] | MIC [6] [µg/mL] | MIC [7] [µg/mL] | MIC [8] [µg/mL] | MIC [10] [µg/mL] | MIC [11] [µg/mL] | MIC [12] [µg/mL] | MIC [13] [µg/mL] | MIC [14] [µg/mL] | MIC [16] [µg/mL] | MIC [17] [µg/mL] | MIC [19] [µg/mL] | MIC [20] [µg/mL] | MIC [21] [µg/mL] | MIC [23] [µg/mL] | MIC [24] [µg/mL] | other results |
| --- | --- | --- | --- | --- | --- | --- | --- | --- | --- | --- | --- | --- | --- | --- | --- | --- | --- | --- | --- | --- | --- |
| C[C@H](CO)[C@H]1CC[C@H]2[C@@H]3[C@H](N)C[C@H]4C[C@@H](NCCCNCCCCN)CC[C@]4(C)[C@H]3CC[C@]12C.Cl.Cl.Cl | 16 | > 32 | 16 | > 32 | > 32 | > 32 | > 32 | > 32 | 8 | 32 | 32 | > 32 | < 32 | > 32 | > 32 | > 32 | > 32 | > 32 | > 32 | 16 | MIC ([9]; read-out: MIC): < 32 µg/mL; MIC ([15]; read-out: MIC): 32 µg/mL; MIC ([18]; read-out: MIC): < 32 µg/mL; MIC [22]: > 32 µg/mL; MIC [25]: 16 µg/mL; MIC [26]: > 32 µg/mL; MIC [27]: > 32 µg/mL; MIC [28]: > 32 µg/mL; MIC ([29]; read-out: MIC): < 32 µg/mL; MIC ([30]; read-out: MIC): < 32 µg/mL; MIC [31]: > 32 µg/mL |
| C[C@H](CO)[C@H]1CC[C@H]2[C@@H]3[C@H](F)C[C@H]4C[C@@H](NCCCNCCCCN)CC[C@]4(C)[C@H]3CC[C@]12C.Cl.Cl.Cl | 8 | > 32 | 16 | > 32 | > 32 | > 32 | > 32 | > 32 | 8 | 8 | 16 | > 32 | < 32 | > 32 | > 32 | > 32 | > 32 | > 32 | > 32 | 8 | MIC [9]: > 32 µg/mL; MIC [15]: > 32 µg/mL; MIC ([18]; read-out: MIC): < 32 µg/mL; MIC ([22]; read-out: MIC): 32 µg/mL; MIC [25]: 16 µg/mL; MIC ([26]; read-out: MIC): < 32 µg/mL; MIC [27]: > 32 µg/mL; MIC [28]: > 32 µg/mL; MIC [29]: > 32 µg/mL; MIC [30]: > 32 µg/mL; MIC [31]: > 32 µg/mL |
| C[C@H](CO)[C@H]1CC[C@H]2[C@@H]3[C@H](O)C[C@H]4C[C@@H](NCCCNCCCCN)CC[C@]4(C)[C@H]3CC[C@]12C.Cl.Cl.Cl | 16 | > 32 | 16 | > 32 | > 32 | > 32 | > 32 | > 32 | 16 | 32 | 32 | > 32 | < 32 | > 32 | > 32 | > 32 | > 32 | > 32 | > 32 | 16 | MIC [9]: > 32 µg/mL; MIC ([15]; read-out: MIC): < 32 µg/mL; MIC [18]: > 32 µg/mL; MIC ([22]; read-out: MIC): < 32 µg/mL; MIC [25]: 16 µg/mL; MIC ([26]; read-out: MIC): < 32 µg/mL; MIC [27]: > 32 µg/mL; MIC [28]: > 32 µg/mL; MIC ([29]; read-out: MIC): < 32 µg/mL; MIC [30]: > 32 µg/mL; MIC [31]: > 32 µg/mL |

Reference: ChEMBL document CHEMBL1795286, “A concise synthesis and antimicrobial activities of 3-polyamino-23,24-bisnorcholanes as steroid-polyamine conjugates” (2011)
